Assay results from patent US10004732B2 (Novartis AG, priority 2014, dated 2018).
Where two headings read alike, the source gives them in different places.

Key:
[1] = target: T1, PI 3-kinase delta (Homo sapiens, UniProt O00329); experiment: TR-FRET Adapta assay, assay F
[2] = system: IL-8-induced neutrophil shape change in human whole blood; experiment: Whole blood neutrophil shape change assay (L); format: cell-based; conditions: IL-8, human whole blood, read-out: Assay L WBSC IC50
[3] = target: T1, PI 3-kinase delta; experiment: Cellular assay J1, p-Akt (S473) in Rat-1 cells, Surefire format; format: cell-based; conditions: non-asterisked data: version J1 (Surefire format), Rat-1 cells; read-out: Assay J PI3Kδ IC50
[4] = target: T2, PI 3-kinase alpha (Homo sapiens, UniProt P42336); experiment: Kinase Glo Luminescent Kinase Assay (Kglo), assay A; format: biochemical; conditions: read-out: Assay A PI3Kα IC50
Target sequence in this assay (P42336 whole entry): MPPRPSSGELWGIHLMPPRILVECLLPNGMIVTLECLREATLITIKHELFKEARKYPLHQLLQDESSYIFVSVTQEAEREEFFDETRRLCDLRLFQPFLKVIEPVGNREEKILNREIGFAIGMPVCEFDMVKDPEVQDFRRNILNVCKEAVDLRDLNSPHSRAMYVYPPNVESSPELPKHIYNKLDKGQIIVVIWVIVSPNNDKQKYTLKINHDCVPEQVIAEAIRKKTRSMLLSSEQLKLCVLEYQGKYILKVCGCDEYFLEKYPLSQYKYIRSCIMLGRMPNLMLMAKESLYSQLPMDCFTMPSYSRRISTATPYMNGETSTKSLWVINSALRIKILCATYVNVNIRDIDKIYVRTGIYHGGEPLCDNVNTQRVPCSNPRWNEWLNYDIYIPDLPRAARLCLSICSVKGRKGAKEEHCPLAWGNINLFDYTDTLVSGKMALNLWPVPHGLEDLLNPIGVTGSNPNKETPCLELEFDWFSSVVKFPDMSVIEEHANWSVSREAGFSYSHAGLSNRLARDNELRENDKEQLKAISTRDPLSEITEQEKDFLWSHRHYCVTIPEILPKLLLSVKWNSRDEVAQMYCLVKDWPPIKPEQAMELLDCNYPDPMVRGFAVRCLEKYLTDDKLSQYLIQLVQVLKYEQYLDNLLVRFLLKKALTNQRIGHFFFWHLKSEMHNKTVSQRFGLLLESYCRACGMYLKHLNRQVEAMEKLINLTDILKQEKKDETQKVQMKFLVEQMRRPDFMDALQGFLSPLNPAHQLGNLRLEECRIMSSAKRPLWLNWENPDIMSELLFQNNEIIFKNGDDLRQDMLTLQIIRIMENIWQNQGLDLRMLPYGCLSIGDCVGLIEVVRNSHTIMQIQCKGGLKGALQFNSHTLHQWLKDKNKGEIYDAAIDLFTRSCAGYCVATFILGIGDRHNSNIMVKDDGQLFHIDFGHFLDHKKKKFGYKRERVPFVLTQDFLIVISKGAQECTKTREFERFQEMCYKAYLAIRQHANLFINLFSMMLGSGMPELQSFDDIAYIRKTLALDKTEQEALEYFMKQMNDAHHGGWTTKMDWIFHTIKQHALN

[5] = target: Vps34 (Homo sapiens, UniProt Q8NEB9); experiment: Kinase Glo Luminescent Kinase Assay (Kglo), assay C; format: biochemical; conditions: read-out: Assay C VPS34 IC50
[6] = target: mTOR (Homo sapiens, UniProt P42345); experiment: Lanthascreen kinase binding assay, assay G; conditions: read-out: Assay G mTOR IC50
Description: Lanthascreen™ Kinase Binding Assay for mTOR (G)
Binding of an inhibitor to the kinase competes for binding with the tracer, resulting in a loss of FRET.
50 nL of compound dilutions were dispensed onto white 384-well small volume polystyrene plate.

[7] = target: PI 3-kinase gamma (Homo sapiens, UniProt P48736); experiment: TR-FRET Adapta assay, assay E; format: biochemical; conditions: read-out: Assay E PI3Kγ IC50
Description: TR-FRET Adapta Assay for PI 3-Kinase Gamma (E), PI 3-Kinase Delta (F)
The TR-FRET Adapta™ Universal Kinase Assay Kit was purchased from Invitrogen Corporation (Carlsbad/CA, USA) (Cat. No. PV5099).
PIK3CD substrate phosphatidylinositol (PI) was obtained from Invitrogen (vesicules consisting of 2 mM phosphatidylinositol (PI) in 50 mM HEPES pH7.5; Cat. No. PV5371). PIK3CG substrate phosphatidylinositol-4,5-bisphosphate (PIP(4,5)2 was obtained from Invitrogen (PIP2:PS large unilamellar vesicules consisting of 1 mM PIP2: 19 mM PS in 50 mM HEPES pH7.5, 3 mM MgCl2, 1 mM EGTA; Cat. No. PV5100).
Time-Resolved Fluorescence Resonance Energy Transfer (TR-FRET) is a technology based on energy transfer between two adjacent dyes, from an excited electron in one dye (the donor) to an electron of an adjacent dye (the acceptor) through resonance, then released as a photon. This energy transfer is detected by an increase in the fluorescence emission of the acceptor, and a decrease in the fluorescence emission of the donor. TR-FRET assays for protein kinases use a long-lifetime lanthanide Terbium or Europium chelates as the donor species which overcome interference from compound autofluorescence or light scatter from precipitated compounds, by introducing a delay after excitation by a flashlamp excitation source. Results are often expressed as a ratio of the intensities of the acceptor and donor fluorophores. The ratiometric nature of such a value corrects for differences in assay volumes between wells, as well as corrects for quenching effects due to colored compounds. The Adapta™ assay can be divided into two phases: a kinase reaction phase and an ADP detection phase. In the kinase reaction phase, all kinase reaction components are added to the well and the reaction is allowed to incubate for a set period of time specific for each kinase. […] In the presence of an inhibitor, the amount of ADP formed by the kinase reaction is reduced, and the resulting intact antibody-tracer interaction maintains a high TR-FRET signal.
50 nL of compound dilutions were dispensed onto white 384-well small volume polystyrene plate. Then 5 μL of either PI 3-kinase gamma or PI 3-kinase delta and lipid substrate (PI or PIP2:PS) followed by 5 μL of ATP (final assay volume 10 μL) are incubated at RT. The standard reaction buffer for the Adapta™ TR-FRET assay contained 10 mM Tris-HCl pH 7.5, 3 mM MgCl2, 50 mM NaCl, 1 mM DTT, 0.05% CHAPS 3-[(3-cholamidopropyl)dimethylammonio]-1-propanesulfonate).
Data are analyzed using Excel fit software or Graphpad Prism. IC50 values were derived by fitting a sigmoidal dose-response curve to a plot of assay readout over inhibitor concentration. All fits were performed with the program XLfit4 (ID Business Solutions, Guildford, UK). […] All fits were performed with the program XLfit4 (ID Business Solutions, Guildford, UK).

[8] = target: PI 4-kinase beta (Homo sapiens, UniProt Q9UBF8); experiment: Kinase Glo Luminescent Kinase Assay (Kglo), assay D; format: biochemical; conditions: read-out: Assay D PI4Kβ IC50
[9] = target: T3, PI 3-kinase beta (Homo sapiens, UniProt P42338); experiment: Kinase Glo Luminescent Kinase Assay (Kglo), assay B; format: biochemical; conditions: read-out: Assay B PI3Kβ IC50
Target sequence in this assay (P42338 whole entry): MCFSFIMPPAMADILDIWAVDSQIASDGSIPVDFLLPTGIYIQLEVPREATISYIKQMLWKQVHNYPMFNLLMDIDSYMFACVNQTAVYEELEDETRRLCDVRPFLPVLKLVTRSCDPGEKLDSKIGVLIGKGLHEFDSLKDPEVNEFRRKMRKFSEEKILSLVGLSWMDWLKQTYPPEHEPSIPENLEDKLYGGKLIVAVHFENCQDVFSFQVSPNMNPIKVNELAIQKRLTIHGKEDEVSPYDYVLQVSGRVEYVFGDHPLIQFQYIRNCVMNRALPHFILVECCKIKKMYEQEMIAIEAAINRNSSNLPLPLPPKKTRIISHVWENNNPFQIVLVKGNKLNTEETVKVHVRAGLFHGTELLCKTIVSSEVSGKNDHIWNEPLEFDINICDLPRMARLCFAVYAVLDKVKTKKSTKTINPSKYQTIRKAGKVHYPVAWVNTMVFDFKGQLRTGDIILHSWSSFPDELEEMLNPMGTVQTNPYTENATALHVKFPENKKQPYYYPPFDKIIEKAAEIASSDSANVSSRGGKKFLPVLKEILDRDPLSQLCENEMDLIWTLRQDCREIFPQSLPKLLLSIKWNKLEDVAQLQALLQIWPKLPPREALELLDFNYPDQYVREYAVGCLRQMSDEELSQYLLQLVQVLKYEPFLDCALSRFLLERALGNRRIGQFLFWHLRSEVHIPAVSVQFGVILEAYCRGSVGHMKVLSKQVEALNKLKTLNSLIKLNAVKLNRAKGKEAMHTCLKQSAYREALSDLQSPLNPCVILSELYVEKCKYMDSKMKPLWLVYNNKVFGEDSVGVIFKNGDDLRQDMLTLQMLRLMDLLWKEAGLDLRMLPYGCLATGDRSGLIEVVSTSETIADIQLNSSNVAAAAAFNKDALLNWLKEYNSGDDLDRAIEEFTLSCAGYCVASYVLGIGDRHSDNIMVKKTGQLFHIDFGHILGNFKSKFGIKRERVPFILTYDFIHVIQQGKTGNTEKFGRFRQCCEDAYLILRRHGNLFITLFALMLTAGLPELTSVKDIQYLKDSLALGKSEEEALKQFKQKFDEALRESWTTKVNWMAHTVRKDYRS
Target sequence in this assay (P27986 461-568 partner): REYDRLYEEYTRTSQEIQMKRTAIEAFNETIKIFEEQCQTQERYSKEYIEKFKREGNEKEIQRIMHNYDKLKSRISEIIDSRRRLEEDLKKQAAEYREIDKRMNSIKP

[10] = target: T3, PI 3-kinase beta; experiment: Cellular assay I1, p-Akt (S473) in Rat-1 cells, Surefire format; format: cell-based; conditions: non-asterisked data: version I1 (Surefire format), Rat-1 cells; read-out: Assay I PI3Kβ IC50
Target sequence in this assay (P42338 whole entry): as the sequence (P42338 whole entry) above
Target sequence in this assay (Q63787 whole entry partner): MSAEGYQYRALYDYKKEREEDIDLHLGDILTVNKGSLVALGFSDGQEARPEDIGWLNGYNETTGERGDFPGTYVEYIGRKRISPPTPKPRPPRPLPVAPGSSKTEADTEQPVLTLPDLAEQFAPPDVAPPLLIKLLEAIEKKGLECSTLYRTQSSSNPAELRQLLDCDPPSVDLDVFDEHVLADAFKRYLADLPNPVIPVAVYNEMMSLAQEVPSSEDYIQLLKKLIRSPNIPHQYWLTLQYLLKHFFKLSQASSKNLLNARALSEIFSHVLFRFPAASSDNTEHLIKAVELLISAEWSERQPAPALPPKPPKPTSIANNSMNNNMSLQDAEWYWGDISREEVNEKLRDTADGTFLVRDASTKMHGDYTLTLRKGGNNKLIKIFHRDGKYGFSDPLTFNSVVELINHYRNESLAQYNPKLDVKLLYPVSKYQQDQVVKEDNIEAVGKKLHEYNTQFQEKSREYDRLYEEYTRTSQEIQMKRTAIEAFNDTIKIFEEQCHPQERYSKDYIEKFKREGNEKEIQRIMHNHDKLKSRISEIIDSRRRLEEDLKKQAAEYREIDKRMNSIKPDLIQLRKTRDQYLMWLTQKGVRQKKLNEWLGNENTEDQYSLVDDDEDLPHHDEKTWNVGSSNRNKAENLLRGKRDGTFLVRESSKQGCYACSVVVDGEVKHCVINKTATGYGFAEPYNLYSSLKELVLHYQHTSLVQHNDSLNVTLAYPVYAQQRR

[11] = Microsomal clearance assay (M); conditions: intrinsic clearance in rat liver microsomes
Description: The experiments were performed in 96-well glass plates at 37° C. on an automated Tecan EVO platform. Test compounds at a concentration of 10 mM in pure DMSO were diluted 1:1000 in water to 10 μM. […] Reactions were initiated by the addition of 150 μL of a cofactor solution containing 2 mM NADPH.

[12] = target: T2, PI 3-kinase alpha; experiment: Cellular assay H1, p-Akt (S473) in Rat-1 cells, Surefire format; format: cell-based; conditions: non-asterisked data: version H1 (Surefire format), Rat-1 cells; read-out: Assay H PI3Kα IC50
Target sequence in this assay (P42336 whole entry): as the sequence (P42336 whole entry) above
Target sequence in this assay (Q63787 whole entry partner): as the sequence (Q63787 whole entry partner) above

Sequence of Vps34 (Q8NEB9 whole entry, species assumed): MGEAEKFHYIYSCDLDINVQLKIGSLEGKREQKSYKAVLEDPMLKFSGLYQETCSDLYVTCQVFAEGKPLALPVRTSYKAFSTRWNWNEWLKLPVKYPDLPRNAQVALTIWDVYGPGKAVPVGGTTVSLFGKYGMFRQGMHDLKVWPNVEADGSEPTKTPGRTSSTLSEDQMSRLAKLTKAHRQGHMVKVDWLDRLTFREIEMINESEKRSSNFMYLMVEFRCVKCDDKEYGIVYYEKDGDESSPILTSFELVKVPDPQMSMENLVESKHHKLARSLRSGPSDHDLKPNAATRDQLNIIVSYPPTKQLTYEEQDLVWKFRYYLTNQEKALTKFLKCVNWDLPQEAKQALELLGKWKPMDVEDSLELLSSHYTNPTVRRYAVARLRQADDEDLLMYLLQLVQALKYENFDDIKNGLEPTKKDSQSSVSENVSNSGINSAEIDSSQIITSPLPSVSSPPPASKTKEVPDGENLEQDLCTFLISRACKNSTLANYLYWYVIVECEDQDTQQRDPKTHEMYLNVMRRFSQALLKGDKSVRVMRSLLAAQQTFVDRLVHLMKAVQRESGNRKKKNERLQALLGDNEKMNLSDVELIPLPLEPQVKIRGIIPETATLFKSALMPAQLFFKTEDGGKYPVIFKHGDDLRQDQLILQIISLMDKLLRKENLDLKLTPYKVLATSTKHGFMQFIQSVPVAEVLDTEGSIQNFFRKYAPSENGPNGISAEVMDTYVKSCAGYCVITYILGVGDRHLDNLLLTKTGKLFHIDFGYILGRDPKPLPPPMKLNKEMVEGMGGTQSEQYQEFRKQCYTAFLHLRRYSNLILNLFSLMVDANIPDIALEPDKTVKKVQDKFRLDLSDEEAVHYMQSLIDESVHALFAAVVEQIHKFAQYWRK
Sequence of PI 3-kinase gamma (P48736 whole entry): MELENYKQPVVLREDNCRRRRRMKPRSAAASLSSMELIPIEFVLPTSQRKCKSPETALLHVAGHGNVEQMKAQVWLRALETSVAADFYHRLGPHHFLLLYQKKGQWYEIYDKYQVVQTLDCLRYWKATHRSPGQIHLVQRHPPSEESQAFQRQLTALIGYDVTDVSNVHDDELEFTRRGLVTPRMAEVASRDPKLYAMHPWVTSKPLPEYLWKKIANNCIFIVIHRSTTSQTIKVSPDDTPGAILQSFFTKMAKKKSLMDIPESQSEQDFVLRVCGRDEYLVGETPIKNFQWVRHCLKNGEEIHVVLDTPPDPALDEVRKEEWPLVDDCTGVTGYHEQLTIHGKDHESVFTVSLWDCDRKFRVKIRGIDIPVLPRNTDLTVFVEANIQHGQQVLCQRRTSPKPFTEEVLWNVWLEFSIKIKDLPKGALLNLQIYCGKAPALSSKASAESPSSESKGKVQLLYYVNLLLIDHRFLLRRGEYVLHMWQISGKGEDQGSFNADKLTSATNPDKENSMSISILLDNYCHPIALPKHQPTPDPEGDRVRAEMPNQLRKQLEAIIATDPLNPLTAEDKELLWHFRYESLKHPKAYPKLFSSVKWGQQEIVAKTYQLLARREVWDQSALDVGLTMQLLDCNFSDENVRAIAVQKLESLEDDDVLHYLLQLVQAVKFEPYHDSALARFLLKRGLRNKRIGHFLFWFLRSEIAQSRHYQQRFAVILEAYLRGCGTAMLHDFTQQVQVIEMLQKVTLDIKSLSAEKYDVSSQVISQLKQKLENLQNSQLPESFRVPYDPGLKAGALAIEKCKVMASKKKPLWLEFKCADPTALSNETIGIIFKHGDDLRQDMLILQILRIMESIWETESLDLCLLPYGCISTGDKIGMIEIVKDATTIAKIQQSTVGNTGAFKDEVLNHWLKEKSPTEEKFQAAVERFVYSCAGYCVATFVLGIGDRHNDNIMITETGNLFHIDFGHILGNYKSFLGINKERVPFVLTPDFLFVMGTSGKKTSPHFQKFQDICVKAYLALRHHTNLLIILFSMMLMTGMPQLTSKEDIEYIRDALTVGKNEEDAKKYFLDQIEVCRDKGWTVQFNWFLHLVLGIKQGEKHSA

| Compound | IC50 ([1]; Assay F PI3Kδ IC50 (μM)) [µM] | IC50 [2] [nM] | IC50 [3] [nM] | IC50 [4] [nM] | IC50 [5] [nM] | IC50 [6] [nM] | IC50 [7] [nM] | IC50 [8] [nM] | IC50 [9] [nM] | IC50 [10] [nM] | Assay M RLM CI(int) [11] [µL/min/mg] | IC50 [12] [nM] | IC50 ([1]; read-out: Assay F PI3Kδ IC50) [µM] | IC50 ([2]; Homo sapiens, Neutrophil) [nM] |
| --- | --- | --- | --- | --- | --- | --- | --- | --- | --- | --- | --- | --- | --- | --- |
| Cc1ccc(S(=O)(=O)NC2CC3(CC(O)C3)C2)cc1-c1cnc(N)c(-n2cncn2)n1 (single isomer, unassigned) [Example 70a, (S)-3-(5-Amino-6-(1H-1,2,4-triazol-1-yl)pyrazin-2-yl)-N-(6-hydroxyspiro[3.3]heptan-2-yl)-4-methylbenzenesulfonamide or (R)-3-(5-Amino-6-(1H-1,2,4-triazol-1-yl)pyrazin-2-yl)-N-(6-hydroxyspiro[3.3]heptan-2-yl)-4-methylbenzenesulfonamide] | 0.29 | 185 | 1410 | 110 | > 10000 | 2000 | 25 | 4600 | 750 | 2640 | 58 | 1920 |  |  |
| Cc1ccc(S(=O)(=O)N[C@H]2CC[C@H](O)CC2)cc1-c1cnc(N)c(-c2cncnc2)n1 [Example 59, Trans-3-(5-Amino-6-(pyrimidin-5-yl)pyrazin-2-yl)-N-(-4-hydroxycyclohexyl)-4-methylbenzenesulfonamide] |  |  | 6420 | 910 | > 9100 | 6020 | 105 | > 9100 | 5290 |  |  | 8470 | 0.41 | 801 |
| Cc1ccc(S(=O)(=O)NCC(C)(C)O)cc1-c1cnc(N)c(-n2cc(C)c(C)n2)n1 [Example 47, 3-(5-Amino-6-(3,4-dimethyl-1H-pyrazol-1-yl)pyrazin-2-yl)-N-(2-hydroxy-2-methylpropyl)-4-methyl benzenesulfonamide] |  |  |  | 330 | > 10000 | > 10000 | 49 | 8700 | 6000 |  | 140 |  | 0.53 | 3140 |
| Cc1ccc(S(=O)(=O)NCC(C)(C)O)cc1-c1cnc(N)c(-c2cnn(C)c2)n1 [Example 46.2, 3-(5-Amino-6-(1-methyl-1H-pyrazol-4-yl)pyrazin-2-yl)-N-(2-hydroxy-2-methylpropyl)-4-methylbenzenesulfonamide] |  |  |  | 480 | > 10000 | 9700 | 54 | 6200 | 2000 |  | 49 |  | 0.73 | 597 |
| Cc1nc(C)n(-c2nc(-c3cc(S(=O)(=O)NCC(C)(C)O)ccc3C)cnc2N)n1 [Example 49, 3-(5-Amino-6-(3,5-dimethyl-1H-1,2,4-triazol-1-yl)pyrazin-2-yl)-N-(2-hydroxy-2-methylpropyl)-4-methylbenzenesulfonamide] |  |  |  | 620 | > 10000 | > 10000 | 49 | > 10000 | 5300 |  | 20 |  | 1.7 | 856 |
| Cc1ccc(S(=O)(=O)NC2CC3(CC(O)C3)C2)cc1-c1cnc(N)c(-c2cn(C)nc2C)n1 (single isomer, unassigned) [Example 9b, (R)-3-[5-Amino-6-(1,3-dimethyl-1H-pyrazol-4-yl)-pyrazin-2-yl]-N-(6-hydroxy-spiro[3.3]hept-2-yl)-4-methyl-benzenesulfonamide or (S)-3-[5-Amino-6-(1,3-dimethyl-1H-pyrazol-4-yl)-pyrazin-2-yl]-N-(6-hydroxy-spiro[3.3]hept-2-yl)-4-methyl-benzenesulfonamide] |  | 335 | 7640 |  | > 10000 | > 10000 | 12 |  | 1200 | > 10000 | 27 |  | 0.24 |  |

More lines, now with the values ahead:

| IC50 ([1]; Assay F PI3Kδ IC50 (μM)) [µM] | IC50 [2] [nM] | IC50 [3] [nM] | IC50 [4] [nM] | IC50 [5] [nM] | IC50 [6] [nM] | IC50 [7] [nM] | IC50 [8] [nM] | IC50 [9] [nM] | IC50 [10] [nM] | Assay M RLM CI(int) [11] [µL/min/mg] | IC50 [12] [nM] | IC50 ([1]; read-out: Assay F PI3Kδ IC50) [µM] | IC50 ([2]; Homo sapiens, Neutrophil) [nM] | Compound |
| --- | --- | --- | --- | --- | --- | --- | --- | --- | --- | --- | --- | --- | --- | --- |
| 1.1 | 687 | 3980 | 840 | > 10000 | 5900 | 4 | > 10000 | 2500 | > 10000 | 57 | 4060 |  |  | Cc1ccc(S(=O)(=O)NC2CC3(CC(O)C3)C2)cc1-c1cnc(N)c(-n2cncn2)n1 (single isomer, unassigned) [Example 70b, (S)-3-(5-Amino-6-(1H-1,2,4-triazol-1-yl)pyrazin-2-yl)-N-(6-hydroxyspiro[3.3]heptan-2-yl)-4-methylbenzenesulfonamide or (R)-3-(5-Amino-6-(1H-1,2,4-triazol-1-yl)pyrazin-2-yl)-N-(6-hydroxyspiro[3.3]heptan-2-yl)-4-methylbenzenesulfonamide] |
|  | 1620 | 5860 | 760 | > 10000 | > 10000 | 21 | 4600 | 1900 | > 10000 | 26 | 6910 | 1.3 |  | Cc1ccc(S(=O)(=O)N[C@H]2C[C@@H](O)C2)cc1-c1cnc(N)c(-n2cncn2)n1 [Example 71b, 3-(5-amino-6-(1H-1,2,4-triazol-1-yl)pyrazin-2-yl)-N-((1s,3s)-3-hydroxycyclobutyl)-4-methylbenzenesulfonamide] |
|  |  | 3630 | 2900 | > 10000 | 9000 | 2100 | 2500 | 5500 | > 10000 | 62 | > 10000 | 4.7 | 85100 | CC(C)(O)CNS(=O)(=O)c1cccc(-c2cnc(N)c(-n3cncn3)n2)c1 [Example 123, 3-(5-Amino-6-(1H-1,2,4-triazol-1-yl)pyrazin-2-yl)-N-(2-hydroxy-2-methylpropyl)benzenesulfonamide] |
|  |  | 440 | 120 | > 10000 | > 10000 | 42 | 7050 | 2300 | > 3000 | 64 | 450 | 0.21 | 1010 | Cc1ccc(S(=O)(=O)NCC(C)(C)O)cc1-c1cnc(N)c(-c2cnn(CC(F)(F)F)n2)n1 [Example 84, 3-(5-Amino-6-(2-(2,2,2-trifluoroethyl)-2H-1,2,3-triazol-4-yl)pyrazin-2-yl)-N-(2-hydroxy-2-methylpropyl)-4-methyl benzenesulfonamide] |
|  |  | 1010 |  | > 9100 | 2190 |  | > 9100 |  | 6030 | 134 | 2350 |  | 1700 | Cc1ccc(S(=O)(=O)NCCC(C)(C)O)cc1-c1cnc(N)c(-c2nc(C3CC3)no2)n1 [Example 143, 3-(5-Amino-6-(3-cyclopropyl-1,2,4-oxadiazol-5-yl)pyrazin-2-yl)-N-(3-hydroxy-3-methylbutyl)-4-methylbenzenesulfonamide] |
|  |  | 1900 | 440 | > 10000 |  | 28 | 8600 | 3000 | > 10000 | <3.4 | 2610 | 0.69 | 935 | Cc1ccc(S(=O)(=O)NCC(C)(C)O)cc1-c1cnc(N)c(-n2cnc(C3CC3)n2)n1 [Example 109, 3-(5-Amino-6-(3-cyclopropyl-1H-1,2,4-triazol-1-yl)pyrazin-2-yl)-N-(2-hydroxy-2-methylpropyl)-4-methyl benzenesulfonamide] |
|  |  |  | 1400 | > 9100 | > 9100 | 73 | > 9100 | 8200 |  | 64 |  | 0.69 | 1160 | Cc1noc(-c2nc(-c3cc(S(=O)(=O)NCC(C)(C)CO)ccc3C)cnc2N)n1 [Example 92, 3-(5-Amino-6-(3-methyl-1,2,4-oxadiazol-5-yl)pyrazin-2-yl)-N-(3-hydroxy-2,2-dimethylpropyl)-4-methylbenzenesulfonamide] |
|  |  | 2090 | 1700 | > 9100 | 8900 | 14 | > 9100 | > 9100 | 8960 |  | 2980 | 0.57 | 3780 | Cc1ccc(S(=O)(=O)NC[C@H]2C[C@@H](O)C2)cc1-c1cnc(N)c(-c2nc(C3CC3)no2)n1 [Example 94, 3-(5-Amino-6-(3-cyclopropyl-1,2,4-oxadiazol-5-yl)pyrazin-2-yl)-N-(((1s,3s)-3-hydroxycyclobutyl)methyl)-4-methylbenzenesulfonamide] |
